Data from patent US20250108038A1 (priority 2023, published 2025).

Legend:
[1] = tested on: Wistar rats; test: Five Choice Serial Reaction Time Task, vITI version, repeated administration; format: in vivo, Wistar rat; parameters: Latency (Correct) / Latency (Incorrect): unit not given here; details: for Latency (Correct) / Latency (Incorrect) / Magazine Head Entries / Omissions / Reward Latency / Trials Completed: vITI, mean ± SEM
Text: The behavioral tasks utilized were three versions of the rat Five Choice Serial Reaction Time Task (5C-SRTT), the standard version of the task (STD) with a fixed stimulus duration and a fixed intertrial interval, the variable stimulus duration (vSD) and the variable intertrial interval (vITI) version. The principal readout parameters in each task were the % Hit and the % correct choices (measures of sustained attention) and three measures of inhibitory response control (premature, perseverative, and timeout responses), although a number of additional outcome measures were obtained (see under Methods and Results below).
Twenty-four adult (approx. 10 months old) male Wistar rats (Envigo, Inc, Indianapolis, IN) were used in the study. […] Subjects were double housed in polycarbonate cages (45×30×18 cm) with corncob bedding in a vivarium of constant temperature (21-23° C.) and humidity (40-50%). […] All behavioral testing was performed during the light portion (9 a.m.-5 p.m.) of the light/dark cycle (Monday thru Friday). Animals were cared for in accordance with the Guide for the Care and Use of Laboratory Animals (U.S. National Institutes of Health) and the experimental protocols were approved by the Institutional Animal Care and Use Committee at Augusta University (Protocol #2010-0044).
The 5C-SRTT procedure (reviewed, Robbins, 2002. Psychopharmacology (Berl); 163(3-4):362-80) was conducted as we have described previously (Terry et al., 2014, Neurotoxicology and Teratology 44:18-29, 2014; Callahan et al., 2020, Neuropharmacology. August 15; 173:107994). […] Animals were trained in eight automated 5C-SRTT operant chambers (Med Associates, St. Albans, VT, USA), controlled by MedPC software (Med Associates). Briefly, each operant chamber was equipped with 5 apertures containing a photocell beam to detect nose pokes and a lamp (2.8 W) that could be illuminated randomly at varying durations. Food pellets (45 mg chow pellet, BioServ, Frenchtown, NJ, USA) were delivered automatically to a magazine, located on the opposite wall to the nose pokes, that was also equipped with a light that turned on to indicate that a pellet had been dispensed. The house-light remained on for the entire session unless an error or omission occurred. Training sessions began with the delivery of a food reward and retrieval triggered the first trial. […] Sessions ended when 40 minutes had lapsed or 100 trials had been completed.
For this study, subjects were re-trained 5 days per week until they re-established a stable performance criteria with a fixed (1.0 sec) stimulus duration and a fixed ITI (5 sec) of 70-75% accuracy, <20% omissions and completion of all 100 trials for 5 consecutive days. Upon meeting these performance criteria animals were trained for one additional week and two groups of subjects (N=12) were assembled and balanced according to their performance accuracy, specifically the % Hit evaluation, which takes into account correct responses as well as all incorrect responses including the number of omissions. […] The vSD version of the task increases the attentional load while the vITI increases impulsivity-like behavior. The following outcome measures and behavioral domains were assessed: % Hit and % correct=sustained attention; omissions=attention/motivation; premature responses=impulsivity; perseverative responses=compulsivity; timeout responses=cognitive inflexibility; magazine head entries=appetitive motivation and compulsivity-like behavior; response latencies=information processing speed and/or motivation. For the STD version of the task, the stimulus duration (SD) was fixed at 1.0 sec and the ITI was fixed at 5 sec. In the vSD version of the task the following stimulus durations were presented in a pseudorandom manner: 0.3, 0.6, and 0.9 sec. In the vITI version, 2.5, 5.0, and 10.0 sec ITIs were employed in a pseudorandom manner. […]

[2] = molecular target: T1, CYP2C8 (Homo sapiens, UniProt P10632)
T1 sequence (P10632 1-490): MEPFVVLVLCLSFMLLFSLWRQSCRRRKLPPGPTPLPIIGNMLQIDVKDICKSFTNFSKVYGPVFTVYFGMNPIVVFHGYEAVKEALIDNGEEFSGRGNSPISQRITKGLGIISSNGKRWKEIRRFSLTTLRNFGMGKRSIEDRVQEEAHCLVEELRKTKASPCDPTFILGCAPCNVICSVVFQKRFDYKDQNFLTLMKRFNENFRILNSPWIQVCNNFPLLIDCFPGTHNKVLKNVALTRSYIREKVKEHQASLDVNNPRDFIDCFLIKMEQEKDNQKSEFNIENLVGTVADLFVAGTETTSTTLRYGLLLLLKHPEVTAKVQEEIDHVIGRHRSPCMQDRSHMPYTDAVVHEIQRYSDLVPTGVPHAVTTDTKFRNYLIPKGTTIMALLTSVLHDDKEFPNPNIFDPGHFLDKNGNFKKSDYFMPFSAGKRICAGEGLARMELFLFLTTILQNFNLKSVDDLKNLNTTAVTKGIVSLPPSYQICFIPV

[3] = molecular target: T2, CYP1A2 (Homo sapiens, UniProt P05177); test: in vitro; details: both, microsomes, pH 7.4
T2 sequence (P05177 1-516): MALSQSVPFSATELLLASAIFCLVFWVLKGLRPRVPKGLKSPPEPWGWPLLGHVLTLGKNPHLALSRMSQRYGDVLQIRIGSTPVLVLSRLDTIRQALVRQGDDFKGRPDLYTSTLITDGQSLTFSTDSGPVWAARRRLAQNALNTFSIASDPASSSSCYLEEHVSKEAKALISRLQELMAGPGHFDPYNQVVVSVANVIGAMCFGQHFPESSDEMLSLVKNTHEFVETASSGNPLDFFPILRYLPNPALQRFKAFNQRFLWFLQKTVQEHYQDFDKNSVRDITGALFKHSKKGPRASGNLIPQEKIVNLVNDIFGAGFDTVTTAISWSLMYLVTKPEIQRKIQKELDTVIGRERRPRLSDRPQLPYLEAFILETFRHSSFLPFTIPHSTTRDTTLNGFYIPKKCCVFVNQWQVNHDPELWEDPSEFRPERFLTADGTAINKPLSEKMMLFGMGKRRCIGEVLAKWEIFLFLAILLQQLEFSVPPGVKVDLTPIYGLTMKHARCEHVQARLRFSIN

[4] = repeated 0.1 and 0.3 mg/kg IP, 10 sec ITI
[5] = Group 1, 0.1 mg/kg, Drug Exp period
[6] = Group 1, 0.1 mg/kg, Post-Drug Exp (vehicle washout) period
[7] = Group 2, 0.3 mg/kg, Drug Exp period
[8] = Group 2, 0.3 mg/kg, Post-Drug Exp (vehicle washout) period

Q: Which results are given for `Clc1ccc(C2(OCC3OCCO3)c3ccccc3C3=NCCN32)cc1` (stereo not drawn) [Compound I-19]?
A: % Hit ([1]; repeated 0.1 and 0.3 mg/kg IP): modest decrease in accuracy that was limited to the 2.5 sec ITI; premature responses [1, 4]: reduced the number of premature responses compared to both the pre- and post-drug conditions at the 10 sec ITI; timeout responses [1, 4]: reduced the number of timeout responses compared to both the pre- and post-drug conditions at the 10 sec ITI; Latency (Correct) [1, 5]: 0.99; Latency (Incorrect) [1, 5]: 2.27 ± 0.12; Magazine Head Entries [1, 5]: 236.13; Omissions [1, 5]: 17.04; Reward Latency [1, 5]: 2.77; Trials Completed [1, 5]: 91.83 ± 4.15; Latency (Correct) [1, 6]: 0.90 ± 0.03; Latency (Incorrect) [1, 6]: 2.03 ± 0.09; Magazine Head Entries [1, 6]: 318.71 ± 34.88; Omissions [1, 6]: 9.63 ± 1.15; Reward Latency [1, 6]: 2.13; Trials Completed [1, 6]: 85.62 ± 4.17; Latency (Correct) [1, 7]: 0.97; Latency (Incorrect) [1, 7]: 2.26; Magazine Head Entries [1, 7]: 268.17; Omissions [1, 7]: 13.42; Reward Latency [1, 7]: 3.21; Trials Completed [1, 7]: 87.50; Latency (Correct) [1, 8]: 0.81 ± 0.03; Latency (Incorrect) [1, 8]: 1.82 ± 0.10; Magazine Head Entries [1, 8]: 415.04 ± 70.50; Omissions [1, 8]: 6.75 ± 1.44; Reward Latency [1, 8]: 2.06; Trials Completed [1, 8]: 78.46 ± 4.47; Inhibition at Highest Test Article Concentration ([2]; 2C8, Amodiaquine, at 50 μM): 73.7 at 50 μM %; IC50 ([2]; microsomes): 2380 nM

Q: With `OC1(c2ccc(Cl)cc2)c2ccccc2C2=NCCN21` (stereo not drawn) [Compound A, 5-(4-chlorophenyl)-2,3-dihydroimidazo[1,2-b]isoindol-5-ol, reference compound] as the compound, how does the inhibition at 50 µM [3] read?
A: 13.7%
